{"source": "paper PMC13576449", "about": "“Small-Molecule Activators of PRMT1: Discovery, SAR Analyses, and Proapoptotic Effects in Pancreatic Cancer Cells” (Journal of Medicinal Chemistry, 2026)", "test_system": "PaTu8988T cells", "assay": "CaspaseGlo 3/7 apoptosis assay, PaTu8988T", "assay_type": "cell-based, human", "details": "72 h", "description": "6 Effect of small-molecule modulators on gemcitabine-induced apoptosis and tumor growth of PDAC cells. […] After 2 h, gemcitabine (GEM) was added at increasing concentrations (10 and 25 nM) or not (−) for another incubation of 72 h. Subsequently, the luminescence-based caspase3/7 assay was performed. The activity of caspase 3/7 in treated cells was normalized to the activity measured in untreated cells (dark gray bar), which was set to 1 (mean SD, n = 6 for PANC-1 and n = 4 for PaTu8988T; *: p ≤ 0.05, **: p ≤ 0.01, ***: p ≤ 0.001, using the student t-test). […] After 24 h, gemcitabine (GEM, 1 μM) was added (+) or not (−) for another incubation of 48 h. Subsequently, the apoptotic cell fraction was quantified in % by flow cytometry using FITC-labeled Annexin V (AV) and propidium iodide (PI) staining (in B: mean ± SD, n = 6 for PANC-1 and n = 5 for PaTu8988T; **: p ≤ 0.01, ***: p ≤ 0.001, ****: p ≤ 0.0001, using the student t-test). […] Viable cells are AV/PI double-negative (AV–/PI–, lower left quadrant, Q4), early apoptotic cells are AV single-positive (AV+/PI– upper left quadrant, Q1), late apoptotic cells are AV/PI double-positive (AV+/PI+, upper right quadrant, Q2), and necrotic cells are PI single-positive (AV–/PI+, lower right quadrant, Q3). The sum of early and late apoptotic cell numbers ([…] in %) is indicated in red. D-G: The workflow of the PDAC xenograft experiments in mice is depicted in D. PANC-1 cells (2 × 10^6 cells/mouse) were subcutaneously (s.c.) injected in the right flank of female athymic nude mice. Small tumor nodules appeared 6 days post-engraftment. […] Tumor volumes were measured every second day using a digital caliper. […] At the end of the 2 weeks, mice were sacrificed and tumors were dissected (F).\nFor quantification of apoptosis using the CaspaseGlo 3/7 assay (Promega), PANC-1 and PaTu8988T cells were seeded in triplicates in white 96-well plate (5 × 10^3 cells/well) and cultured in the absence or presence of compounds. After 2 h, as soon as the cells had settled, gemcitabine was added or not, and cells were incubated for another 72 h. Subsequently, the caspase3/7 activity was measured using the luminescence-based CaspaseGLO-3/7 assay (Promega). To this end, the CaspaseGlo reagent was subsequently added to the cells at a 1:1 ratio and incubated at room temperature and under agitation for 30 min protected from light. The luminescence measurements were carried out using a microplate reader (Mithras LB 940, Berthold)."}
{"smiles": "CN(C)Cc1cccc(CN/C=C2\\C(=O)NC(=O)c3ccccc32)c1.Cl", "note": "[TR-07, (Z)-1-[3-({[(1,3-Dioxo-2,3-dihydroisoquinolin-4(1H)-lidene)methyl]amino}methyl)phenyl]-N,N-dimethylmethanaminium chloride]", "values": [{"measurement": "apoptosis, caspase 3/7 activity, single agent", "setting": "TR-07 10 μM or gemcitabine 10 and 25 nM", "value": "did not significantly induce apoptosis"}, {"measurement": "gemcitabine-induced apoptosis, caspase 3/7 activity, co-treatment", "setting": "compound 10 μM, after 2 h gemcitabine 10 and 25 nM", "value": "further significantly enhanced"}]}
